For one compound, EC50 results are on record in paper PMC3502511, “Inhibition of the Prokaryotic Pentameric Ligand-Gated Ion Channel ELIC by Divalent Cations” (PLoS Biology, 2012).

The test has as its target T1, ELIC D113A (Dickeya chrysanthemi, UniProt P0C7B7, D113A/INS163G).
T1 construct: expressed in transfected cells; host or cells: X. laevis oocytes
Kind of test: Two-electrode voltage clamp, ELIC D113A in oocytes. The class given is cell-based, Erwinia chrysanthemi. Particulars: agonist cysteamine. The procedure: Constructs containing the gene of either the WT or mutant channels preceded by the signal sequence of the chicken α7nAchR were cloned into the pTLN vector for expression in X. laevis oocytes. After linearization of the plasmid DNA by MluI, capped complementary RNA was transcribed with the mMessage mMachine kit (Ambion) and purified with the RNeasy kit (Qiagen). For expression, 1–50 ng of RNA was injected into defolliculated oocytes. Two-electrode voltage clamp measurements were performed 1 d after injection at 20°C (OC-725B, Warner Instrument Corp.). Currents were recorded in bath solutions containing 10 mM HEPES (pH 7), 130 mM NaCl, and the indicated concentrations of cysteamine and divalent cations. In case of solutions containing Zn^2+, cysteamine was replaced by propylamine. The membrane potential in all dose–response measurements was set to −40 mV. As ELIC is permeable to divalent cations, we tested if endogenous calcium-activated chloride channels affected our measurements. To chelate intracellular calcium ions, the oocytes were incubated for 15 to 30 min in bath solutions lacking divalent ions but containing 10 µM BAPTA-AM.
(In general: Two-electrode voltage clamp is typically applied to oocytes expressing channels or transporters.)

In the case of `NCCS` [cysteamine], the concentration giving a half-maximal response (EC50) by setting is: (Ca^2+ 0 mM) 950 µM; (Ca^2+ 1 mM) 880 µM; (Ca^2+ 2.5 mM) 1460 µM; (Ca^2+ 5 mM) 1860 µM; (Ca^2+ 10 mM) 2900 µM; (Ca^2+ 25 mM) 6370 µM.

The term EC50 denotes the midpoint of the concentration-response curve.
